Results reported in patent US20130209625A1, “METHODS AND COMPOSITIONS FOR STIMULATING A FELIDAE T1R RECEPTOR” (MONELL CHEMICAL SENSES CENTER, priority 2010, published 2013).

Tested on: Felidae T1R1/T1R3 receptor
Test: Calcium imaging (fura-2, F340/F380) of HEK293 cells expressing T1R1/T1R3 receptor and Gα15, responses to taste stimuli
Type: cell-based, cat
Excerpt: Provided herein are methods for determining if two or more test compounds have an augmenting effect on the T1R1/T1R3 receptor where each test compound alone elicits a small or moderate response comprising contacting the receptor with the test compounds, and measuring the response of the receptor to the test compounds, wherein the compounds have an augmenting effect on the receptor if the response of the receptor to the compounds in a mixture in which each compound is presented at a given concentration is greater than the response to either one of the compounds alone at its given respective concentration. Responses are measured in terms of the Fluorescence Ratio F340/F380 as detailed in the Examples. Responses are gauged by comparing each response with the response to 100 μM isoproterenol, the positive control which activates the cell through Gα15. A null response is less than 10% of the control response. A small or moderate response is equal to or greater than 10% of the control response. In some preferred embodiments, the T1R1/T1R3 receptor is a Felidae T1R1/T1R3 receptor
b. Cell Transfection: HEK293 cell lines that stably express Gα15 were grown and maintained at 37° C. DMEM supplemented with 10% FBS and MEM nonessential amino acids (Invitrogen); the medium for Gα15 transfected cells contains 5 μg/ml blasticidin (Invitrogen). Cells were co-transfected with expression constructs by using Lipofectamine 2000 reagent (Invitrogen). T1R1/T1R3 transfected cells were selected using Zeocin (100 μg/ml) and hygromycin (400 μg/ml).
c. Establishing stable cell lines: Transfected cells were maintained in antibiotic selective medium until colonies appear. Single colonies were identified two weeks after transfection and were examined for RNA expression by RT-PCR and for protein expression by immunohistochemistry. Positive colonies confirmed by RT-PCR and immunohistochemistry were stocked in liquid nitrogen as stable cell lines expressing T1R1/T1R3.
a. In vitro assays: HEK293 cells' responses to taste stimuli were measured using calcium imaging techniques (Nelson et al. 2001, Li et al. 2002, Gomez et al. 2005). Transfected cells were loaded with fura-2 containing buffer for one hour. Coverslips with fura-2 loaded cells were then placed in a recording chamber and continuously superfused with Hank's salt solution (Nelson et al. 2001). Enhancement solutions were applied by switching the superfusion, which allowed a complete change of bath solutions within 5-20 seconds, based on preliminary experiments with fluorescent dye for each setup and recording chamber. Calcium imaging recordings were performed using Imagemaster-5 multi-wavelength quantitative fluorescence imaging system (Photon Technology International, Inc.). Cells were illuminated with UV light at two wavelengths (340 or 380 nm). Intracellular calcium activity was computed from the ratio of emitted light from the 340/380 nm wavelengths. Excitation light was shuttered between acquisitions, with exposure times being minimized (typically 50-100 msec). Images are normally acquired every 2-5 sec. Using these conditions, cells remain viable in the recording setup for more than 2 h without significant effects of dye bleaching or baseline shifts. The use of ratiometric imaging reduces the problems associated with fluorescence quenching or dye loss that can generate artifacts using single-wavelength dyes.
b. Amino acid stimulation of the HEK transfected cell lines: In a typical experiment to determine if there is an interaction at the receptor between two compounds, the response (peak height of intracellular calcium concentration) to each compound as well as a mixture of the two compounds is measured. If each compound alone elicits a small or moderate response, it will be necessary to compare responses to single compounds with a mixture in which each compound is presented at its initial test concentration. In this manner we can determine if the enhancement is greater than simple additivity. […]

C[C@H](N)C(=O)O [L-alanine]
response of HEK293 cell (calcium imaging) (FIG. 5, 25 mM L-alanine alone): null responses

N[C@@H](Cc1c[nH]cn1)C(=O)O [L-histidine]
augmentation of response by pyrophosphate (FIG. 4, 5 cells): not augmented | response of HEK293 cells (calcium imaging) (FIG. 4, 5 cells, 25 mM L-histidine alone): null responses | response of HEK293 cell (calcium imaging) (FIG. 5, 25 mM L-histidine alone): null responses

NCCCC[C@H](N)C(=O)O [L-lysine]
response of HEK293 cells (calcium imaging) (FIG. 4, 5 cells, 25 mM L-lysine alone): null responses | response of HEK293 cell (calcium imaging) (FIG. 6, 25 mM L-lysine alone): null response (A null response is less than 10% of the control response)

O=C(O)[C@@H]1CCCN1 [L-proline]
response of HEK293 cell (calcium imaging) (FIG. 1, 25 mM L-proline alone, vs 100 μM isoproterenol positive control): null responses | response of HEK293 cells (calcium imaging) (FIG. 2, 3 cells, 50 mM L-proline alone): null responses | response of HEK293 cell (calcium imaging) (FIG. 3, 50 mM L-proline presented singly): null responses

O=P([O-])([O-])OP(=O)([O-])O.[Na+].[Na+].[Na+] [sodium pyrophosphate, trisodium pyrophosphate]
response of HEK293 cell (calcium imaging) (FIG. 3, 10 mM sodium pyrophosphate presented singly): null responses | response of HEK293 cell (calcium imaging) (FIG. 3, 20 mM sodium pyrophosphate presented singly): null responses | response of HEK293 cells (calcium imaging) (FIG. 4, 5 cells, 20 mM sodium pyrophosphate alone): null responses | response of HEK293 cell (calcium imaging) (FIG. 6, 20 mM sodium pyrophosphate alone): weak response
